Results reported in ChEMBL document CHEMBL5104135, “Potent and selective TYK2-JH1 inhibitors highly efficacious in rodent model of psoriasis” (Bioorg Med Chem Lett, 2022).
pIC50: −log10 of the molar value. ≈ marks a conversion by molar mass, not a printed value. Calls of active or inactive are those of the source. No cut-off for these calls is given here.

How the values were obtained:
[1] = biological target: Phosphodiesterase 4 (Homo sapiens) (UniProt P27815+Q08499+Q07343+Q08493); test: Inhibition of human PDE4 at 10 uM measured by radioligand binding assay relative to control; assay type: protein assay
[2] = Thermodynamic solubility in simulated gastric fluid; assay type: physicochemical; conditions: read-out: Therm_solubility
[3] = Oral bioavailability in mouse at 10 mg/kg; assay type: ADME, organism-based; conditions: in vivo
[4] = Clearance in mouse at 3 mg/kg, iv; assay type: ADME, organism-based; conditions: in vivo
[5] = Plasma protein binding in dog
Mus musculus [6] = test: Anti-inflammatory activity in IL-23-induced ear inflammation model of mouse assessed as inhibition of ear swelling at 100 mg/kg/day; assay type: functional
Mus musculus [7] = test: Anti-inflammatory activity in imiquimod-induced mouse psoriasis model assessed as reduction in psoriasis score at 10 to 100 mg/kg/day; assay type: functional, organism-based; conditions: dose 10-100 mg/kg/day
Spleen [8] = test: Anti-inflammatory activity in imiquimod-induced mouse psoriasis model assessed as reduction in inflammation in spleen at 10 to 100 mg/kg/day; assay type: functional, organism-based; conditions: dose 10-100 mg/kg/day
Spleen [9] = test: Anti-inflammatory activity in imiquimod-induced mouse psoriasis model assessed as reduction in spleen weight at 10 to 100 mg/kg/day; assay type: functional, organism-based; conditions: dose 10-100 mg/kg/day
[10] = Half-life in dog at 3 mg/kg, iv; assay type: ADME, organism-based, Canis lupus familiaris; conditions: in vivo
[11] = biological target: Protein kinase C (PKC) (Rattus norvegicus) (UniProt P05696+P68403+P09216+P63319+P09215+Q64617+Q9WTQ0+P09217); test: Inhibition of rat PKC at 10 uM measured by radioligand binding assay relative to control; assay type: protein assay
[12] = Volume of distribution in rat at 3 mg/kg, iv; assay type: ADME, organism-based; conditions: in vivo
[13] = biological target: T1, Alpha-2B adrenergic receptor (Homo sapiens) (UniProt P18089); test: Inhibition of human adrenergic alpha2B at 10 uM measured by radioligand binding assay relative to control
T1 sequence (whole entry): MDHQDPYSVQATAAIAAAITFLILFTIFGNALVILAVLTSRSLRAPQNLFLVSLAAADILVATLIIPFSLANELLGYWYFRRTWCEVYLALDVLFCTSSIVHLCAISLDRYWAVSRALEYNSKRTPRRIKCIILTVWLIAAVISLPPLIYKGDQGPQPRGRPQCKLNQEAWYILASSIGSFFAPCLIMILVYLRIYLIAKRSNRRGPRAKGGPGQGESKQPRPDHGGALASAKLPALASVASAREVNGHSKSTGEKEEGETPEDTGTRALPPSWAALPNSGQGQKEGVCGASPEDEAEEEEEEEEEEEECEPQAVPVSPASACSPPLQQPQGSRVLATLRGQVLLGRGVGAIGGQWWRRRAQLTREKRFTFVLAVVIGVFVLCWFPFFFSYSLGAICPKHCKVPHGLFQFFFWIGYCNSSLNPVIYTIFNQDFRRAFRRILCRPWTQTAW

Mus musculus [14] = test: Anti-inflammatory activity in IL-23-induced ear inflammation model of mouse assessed as inhibition of IL-17A levels at 100 mg/kg/day; assay type: functional
[15] = Half-life in rat at 3 mg/kg, iv; assay type: ADME, organism-based; conditions: in vivo
[16] = Thermodynamic solubility in fasted simulated intestinal fluid; assay type: physicochemical; conditions: read-out: Therm_solubility
[17] = Plasma protein binding in mouse assessed as unbound fraction
[18] = Plasma protein binding in dog assessed as unbound fraction
[19] = Plasma protein binding in rat
[20] = Half-life in mouse at 3 mg/kg, iv; assay type: ADME, organism-based; conditions: in vivo
[21] = Plasma protein binding in rat assessed as unbound fraction
[22] = biological target: Tyrosine-protein kinase Lck (Homo sapiens) (UniProt P06239); test: Inhibition of human LCK at 10 uM measured by radioligand binding assay relative to control
Tyrosine-protein kinase Lck (Homo sapiens), sequence (P06239 2-509 limits assumed): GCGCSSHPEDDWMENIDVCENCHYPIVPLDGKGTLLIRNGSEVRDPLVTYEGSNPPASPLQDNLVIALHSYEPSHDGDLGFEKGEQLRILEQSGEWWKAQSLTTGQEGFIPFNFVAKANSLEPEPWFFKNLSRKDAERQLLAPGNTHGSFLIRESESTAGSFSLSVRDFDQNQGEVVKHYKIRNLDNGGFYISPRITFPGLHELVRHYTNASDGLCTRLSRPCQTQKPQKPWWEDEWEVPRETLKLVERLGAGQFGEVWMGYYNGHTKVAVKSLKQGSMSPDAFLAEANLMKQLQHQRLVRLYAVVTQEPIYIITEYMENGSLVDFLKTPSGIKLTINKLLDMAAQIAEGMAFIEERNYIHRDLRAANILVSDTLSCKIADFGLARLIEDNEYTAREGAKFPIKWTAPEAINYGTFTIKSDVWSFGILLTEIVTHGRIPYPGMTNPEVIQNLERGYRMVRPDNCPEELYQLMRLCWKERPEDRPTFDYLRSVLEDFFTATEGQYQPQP

[23] = Oral bioavailability in dog at 10 mg/kg; assay type: ADME, organism-based, Canis lupus familiaris; conditions: in vivo
Blood [24] = test: Inhibition of IL-12- induced IFN-gamma production in human whole blood; assay type: functional, tissue-based
[25] = Clearance in dog at 3 mg/kg, iv; assay type: ADME, organism-based, Canis lupus familiaris; conditions: in vivo
[26] = biological target: T2, Peroxisome proliferator-activated receptor gamma (Homo sapiens) (UniProt P37231); test: Inhibition of human PPARgamma at 10 uM measured by radioligand binding assay relative to control
T2 sequence (whole entry): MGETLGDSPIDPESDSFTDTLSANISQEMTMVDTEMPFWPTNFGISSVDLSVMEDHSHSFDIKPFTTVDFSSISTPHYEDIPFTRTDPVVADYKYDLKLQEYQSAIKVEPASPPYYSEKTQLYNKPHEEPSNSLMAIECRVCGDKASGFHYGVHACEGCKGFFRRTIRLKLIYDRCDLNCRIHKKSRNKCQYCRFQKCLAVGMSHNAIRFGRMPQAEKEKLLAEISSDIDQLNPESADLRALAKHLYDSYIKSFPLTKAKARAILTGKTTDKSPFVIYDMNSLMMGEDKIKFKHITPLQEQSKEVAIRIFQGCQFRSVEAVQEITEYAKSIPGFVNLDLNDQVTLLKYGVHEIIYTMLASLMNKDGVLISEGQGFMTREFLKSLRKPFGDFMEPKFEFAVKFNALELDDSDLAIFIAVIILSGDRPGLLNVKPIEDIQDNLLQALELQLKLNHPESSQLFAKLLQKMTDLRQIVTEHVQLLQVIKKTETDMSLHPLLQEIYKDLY

[27] = Volume of distribution in mouse at 3 mg/kg, iv; assay type: ADME, organism-based; conditions: in vivo
[28] = Clearance in rat at 3 mg/kg, iv; assay type: ADME, organism-based; conditions: in vivo
[29] = Volume of distribution in dog at 3 mg/kg, iv; assay type: ADME, organism-based, Canis lupus familiaris; conditions: in vivo
[30] = Plasma protein binding in human assessed as unbound fraction
[31] = Oral bioavailability in rat at 10 mg/kg; assay type: ADME, organism-based; conditions: in vivo
Blood [32] = test: Inhibition of IL-12- induced IFN-gamma production in mouse whole blood; assay type: functional, tissue-based
[33] = Kinetic solubility of compound at pH 7.4; conditions: buffer

inhibition [1]: 59%
solubility thermodynamic [2]: 2300 µM (≈ 999 µg/mL)
bioavailability [3]: > 90%
clearance [4]: 28 mL/min/kg
fraction unbound [5]: 0.13
half-life [10]: 6.5 h
inhibition [11]: 66%
Vd [12]: 1.9 L/kg
inhibition [13]: 56%
half-life [15]: 1.6 h
solubility thermodynamic [16]: 240 µM (≈ 104 µg/mL)
fraction unbound [17]: 0.061
fraction unbound [18]: 0.13
fraction unbound [19]: 0.13
half-life [20]: 1.8 h
fraction unbound [21]: 0.1
inhibition [22]: 61%
bioavailability [23]: 63%
pIC50 (Blood [24]; Homo sapiens, Blood): 5.74
clearance [25]: 5.2 mL/min/kg
inhibition [26]: 68%
Vd [27]: 1.2 L/kg
clearance [28]: 27 mL/min/kg
Vd [29]: 2.5 L/kg
fraction unbound [30]: 0.099
bioavailability [31]: 32%
pIC50 (Blood [32]; Mus musculus, Blood): 5.23
solubility kinetic [33]: 270 µM (≈ 117 µg/mL)
SMILES: O=C1NCc2nc(-c3c(F)cccc3F)cc(Nc3ccc(C(=O)N4CCCC4)cc3)c21
inhibition in vivo at 100 mg/kg/day (Mus musculus [6]): 74%
Activity (Mus musculus [7]): Active
Activity (Spleen [8]): Active
Activity (Spleen [9]): Active
inhibition in vivo at 100 mg/kg/day (Mus musculus [14]): 96%
fIC50 (Blood [24]): 0.18 µM
fIC50 (Blood [32]): 0.36 µM
